Measurements reported in ChEMBL document CHEMBL2417433, “Synthesis and biological evaluations of a monomethylauristatin E glucuronide prodrug for selective cancer chemotherapy” (Eur J Med Chem, 2013).
Calls of active or inactive are those of the source. The rule behind the calls is not given here. Non-standard residues stand in square brackets, D forms with d. Residues, ends and D or L forms follow the SMILES beside them. *: point of attachment. Dolaproine = CO[C@@H]([C@@H]1CCCN1)[C@@H](C)C(=O)O; Dil = CC[C@H](C)[C@H](NC)[C@@H](CC(=O)O)OC; X1 = C[C@@H](N*)[C@@H](O)c1ccccc1; NMeV = CN[C@H](C(=O)O)C(C)C

Tests used:
[1] = Cytotoxicity against human non-small cell lung cancer cells at 1 nM after 4 days by XTT assay in presence of Escherichia coli beta-glucuronidase; format: functional, Cancer cell lines
[2] = system: Lewis lung carcinoma cell line; assay: Antitumor activity against mouse LLC cells allografted in C57/BL6 mouse assessed as reduction in tumor weight at 0.5 mg/kg, iv administered on day 7, 11 and 14 post transplantation measured on day 20 relative to control; format: functional
A549 [3] = assay: Antiproliferative activity against human A549 cells after 4 days by XTT assay; format: functional, cell-based; conditions: A549, 96 h
A549 [4] = assay: Ratio of IC50 for human A549 cells to IC50 for human A549 cells in presence of Escherichia coli beta-glucuronidase; format: functional
KB [5] = assay: Antiproliferative activity against human KB cells after 4 days by XTT assay; format: functional, cell-based; conditions: 96 h
KB [6] = assay: Ratio of IC50 for human KB cells to IC50 for human KB cells in presence of Escherichia coli beta-glucuronidase; format: functional
[7] = Prodrug conversion in phosphate buffer at pH 7 assessed as MMAE and 4-hydroxy-3-nitrobenzyl alcohol formation after 40 mins by HPLC method in presence of Escherichia coli beta-glucuronidase; format: physicochemical; conditions: pH 7, 40 min
MDA-MB-231 [8] = assay: Antiproliferative activity against human MDA-MB-231 cells after 4 days by XTT assay in presence of Escherichia coli beta-glucuronidase; format: functional, cell-based; conditions: MDA-MB-231, 96 h
Serum = assay: Stability in bovine serum at 0.5 mg after 48 hrs by HPLC method; format: ADME, cell-free, Bos taurus; conditions: cattle
Mus musculus = assay: Toxicity in mouse LLC cells allografted C57/BL6 mouse model assessed as change in body weight at 0.5 mg/kg, iv administered on day 7, 11 and 14 post transplantation measured on day 20; format: organism-based; parameters: dose 0.5 mg/kg, route intravenous; conditions: in vivo
KB [9] = assay: Antiproliferative activity against human KB cells after 4 days by XTT assay in presence of Escherichia coli beta-glucuronidase; format: functional, cell-based; conditions: 96 h
MDA-MB-231 [10] = assay: Ratio of IC50 for human MDA-MB-231 cells to IC50 for human MDA-MB-231 cells in presence of Escherichia coli beta-glucuronidase; format: functional
A549 [11] = assay: Antiproliferative activity against human A549 cells after 4 days by XTT assay in presence of Escherichia coli beta-glucuronidase; format: functional, cell-based; conditions: A549, 96 h
Cancer cell lines = assay: Cytotoxicity against human non-small cell lung cancer cells at 0.5 to 1 nM after 4 days by XTT assay; format: functional, cell-based
MDA-MB-231 [12] = assay: Antiproliferative activity against human MDA-MB-231 cells after 4 days by XTT assay; format: functional, cell-based; conditions: MDA-MB-231, 96 h
[13] = system: Lewis lung carcinoma cell line; assay: Antitumor activity against mouse LLC cells allografted in C57/BL6 mouse assessed as reduction in tumor weight at 0.1 mg/kg, iv administered on day 7, 11 and 14 post transplantation measured on day 20 relative to control; format: functional

| Compound | Activity [1] | fold change (FC) [2] | IC50 (A549 [3]) | Ratio IC50 (A549 [4]) | IC50 (KB [5]) | Ratio IC50 (KB [6]) | Drug metabolism [7] | IC50 (MDA-MB-231 [8]) | Stability (Serum) | Activity (Mus musculus) | IC50 (KB [9]) | Ratio IC50 (MDA-MB-231 [10]) | IC50 (A549 [11]) | Activity (Cancer cell lines) | IC50 (MDA-MB-231 [12]) | fold change (FC) [13] |
| --- | --- | --- | --- | --- | --- | --- | --- | --- | --- | --- | --- | --- | --- | --- | --- | --- |
| CC[C@H](C)[C@@H]([C@@H](CC(=O)N1CCC[C@H]1[C@H](OC)[C@@H](C)C(=O)N[C@H](C)[C@@H](O)c1ccccc1)OC)N(C)C(=O)[C@@H](NC(=O)[C@H](C(C)C)N(C)C(=O)OCc1ccc(O[C@@H]2O[C@H](C(=O)O)[C@@H](O)[C@H](O)[C@H]2O)c([N+](=O)[O-])c1)C(C)C | 75% | 1.5 | 23.7 nM | 40 | 20.8 nM | 40 | Active | 0.22 nM | Stable | Non-toxic | 0.16 nM | 40 | 0.52 nM | inactive | 20.9 nM |  |
| CC[C@H](C)[C@@H]([C@@H](CC(=O)N1CCC[C@H]1[C@H](OC)[C@@H](C)C(=O)N[C@H](C)[C@@H](O)c1ccccc1)OC)N(C)C(=O)[C@@H](NC(=O)[C@@H](NC)C(C)C)C(C)C (H-[NMeV]V[Dil][Dolaproine]-X1) |  |  | 0.59 nM |  | 0.19 nM |  |  |  |  |  |  |  |  | Active | 0.25 nM | 1.5 |
